Laboratory results as given in patent publication US8476198B2, “Fungicidal composition” (Valent BioSciences Corporation, priority 2009, dated 2013).
Where a name gives a salt, the structure may show the parent alone.

Columns and labels:
[1] = test system: Fusarium solani f. sp. pisi; experiment: Seed treatment effect against Fusarium solani f. sp. pisi (Fusarium root rot of pea); assay type: in vivo, Fusarium solani f. sp. pisi on pea; settings: 16 days
Protocol: Seed treatment effect against Fusarium solani f. sp. pisi (Fusarium root rot of pea)
PESA and metconazole were diluted with DMSO respectively and mixed with each other to obtain the desired material mixture. Then, this suspension was applied to pea seeds. The PESA solution and the metconazole solution were applied to seeds respectively for control, and DMSO for untreated control. The seeds were dried and planted in soil that was inoculated with Fusarium solani f. sp. pisi. After growing at 20-24° C. in a greenhouse, for 16 days, symptoms were investigated and the frequency of disease and % control were calculated. The fungicide interactions in the combinations are calculated according to […] formula: E=X+Y−(X*Y)/100 • X=% action by active ingredient A using P ppm of active ingredient • Y=% action by active ingredient B using Q ppm of active ingredient • E=expected % action by active ingredients A and B using P and Q ppm of active ingredients If the action actually observed (O) is greater than the expected action (E), than the action of the combination is super-additive, i.e. there is a synergistic effect. In mathematical terms, synergism corresponds to a value of more than 100 for the ratio of O/E, said ratio O/E of less than 100 signals a loss of activity compared to the expected activity. Synergy Effect=(Observed/Expected)*100

cotton seedlings = experiment: Pouch assay: main root length of cotton seedlings from treated seeds; assay type: in vivo; settings: for Root Length (cm): 6 day-old cotton seedlings
Protocol: Seeds of cotton were treated with PESA salt and/or triadimenol (BAYTAN® 30 Flowable Fungicide, Bayer Crop Science, RTP, NC USA). These were assayed in the pouch assay as described above.

SMILES: CC1(C)CCC(Cc2ccc(Cl)cc2)C1(O)Cn1cncn1 (stereo not drawn) [Metconazole, metconazole, reference compound]
- Observed action (% control) ([1]; metconazole 0.2 gai/100 kg seed): 55 % control
- Observed action (% control) ([1]; metconazole 1 gai/100 kg seed): 73 % control

SMILES: O=C(O)CCC(=O)NCCc1ccccc1 [PESA salt]
- Root Length (cm) (cotton seedlings; 25 g ai PESA salt/100 lbs. of seed, triadimenol 0): 14.8 cm
- Root Length (cm) (cotton seedlings; 50 g ai PESA salt/100 lbs. of seed, triadimenol 0): 14.3 cm
- Effect of adding PESA salt on the fungicide's negative effect on cotton root growth (cotton seedlings; cotton seed treatment, conclusion in words from Table 2): protects or safens cotton from the negative effects of the fungicide on root growth

SMILES: O=C(O)CCC(=O)NCCc1ccccc1 [PESA, N-(2-phenylethyl)succinamic acid]
- Observed action (% control) ([1]; PESA 2 gai/100 kg seed, inoculated soil): 0 % control
- Observed action (% control) ([1]; PESA 10 gai/100 kg seed, inoculated soil): 9 % control

SMILES: CC(C)(C)C(O)C(Oc1ccc(Cl)cc1)n1cncn1 (stereo not drawn) [Triadimenol, triadimenol, reference compound]
- Root Length (cm) (cotton seedlings; triadimenol 28.2 g ai/100 lbs. of seed, 0 g ai PESA salt): 12.8 cm
- Root Length (cm) (cotton seedlings; triadimenol 56.4 g ai/100 lbs. of seed, 0 g ai PESA salt): 12.3 cm
